Laboratory results: PubChem BioAssay (NCI)
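Protocol summary: plate cells (96-well), add compound at 5 concentrations, incubate 48 h, interpolate endpoints linearly. Abbreviation: GI50, concentration required for 50% inhibition of growth. Definition used: TGI = concentration required for complete inhibition of growth.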

Key:
Test in all cases: NCI anticancer screen, dose series, 48 h
[1] = system: RPMI-8226 leukemia
[2] = system: PC-3 prostate
[3] = system: UACC-62 melanoma
[4] = system: A549 NSCLC
[5] = system: KM12 colon
[6] = system: SR leukemia
[7] = system: A498 renal
[8] = system: IGROV1 ovarian
[9] = system: NCI-H226 lung
[10] = system: SNB-19 CNS
[11] = system: OVCAR-4 ovarian
[12] = system: TK-10 renal
[13] = system: SK-MEL-2 melanoma
[14] = system: UO-31 renal
[15] = system: HL-60(TB) leukemia
[16] = system: M14 melanoma
[17] = system: MDA-MB-435
[18] = system: SNB-75 CNS
[19] = system: T-47D breast
[20] = system: NCI/ADR-RES ovarian
[21] = system: SK-MEL-5 melanoma
[22] = system: SK-MEL-28 melanoma
[23] = system: MDA-MB-231 breast
[24] = system: RXF 393 renal
[25] = system: BT-549 breast
[26] = system: HT29 colon
[27] = system: HCC-2998 colon
[28] = system: SN12C renal
[29] = system: EKVX NSCLC
[30] = system: SF-539 CNS
[31] = system: 786-0 renal
[32] = system: OVCAR-8 ovarian
[33] = system: CCRF-CEM leukemia
[34] = system: OVCAR-5 ovarian
[35] = system: HS 578T breast
[36] = system: HOP-92 NSCLC
[37] = system: DU-145 prostate
[38] = system: NCI-H522 lung
[39] = system: SK-OV-3 ovarian
[40] = system: K-562 leukemia
[41] = system: CAKI-1 renal
[42] = system: MDA-MB-468 breast
[43] = system: MALME-3M melanoma
[44] = system: UACC-257 melanoma
[45] = system: SF-268 CNS

## Cn1cc(-c2cc(N)n3nc(-c4c[nH]c5ccccc45)cc3n2)c2cc(Br)ccc21
[1]
  GI50: 2.98 µM
  TGI: 9.57 µM
[2]
  GI50: 2.09 µM
  TGI: 5.36 µM
[3]
  GI50: 1.65 µM
  TGI: 3.28 µM
[4]
  GI50: 1.91 µM
  TGI: 5.18 µM
[5]
  GI50: 1.94 µM
  TGI: 4.09 µM
[6]
  GI50: 5.95 µM
  TGI: > 100 µM
[7]
  GI50: 2.06 µM
  TGI: 7.26 µM
[8]
  GI50: 1.99 µM
  TGI: 4.52 µM
[9]
  GI50: 4.76 µM
  TGI: 42.9 µM
[10]
  GI50: 2.02 µM
  TGI: 4.39 µM
[11]
  GI50: 3.06 µM
  TGI: 11.2 µM
[12]
  GI50: 2.08 µM
  TGI: 5.53 µM
[13]
  GI50: 1.88 µM
  TGI: 4.27 µM
[14]
  GI50: 1.71 µM
  TGI: 3.53 µM
[15]
  GI50: 2.86 µM
  TGI: 9.81 µM
[16]
  GI50: 1.79 µM
  TGI: 4.09 µM
[17]
  GI50: 2.07 µM
  TGI: 4.65 µM
[18]
  GI50: 2.05 µM
  TGI: 9.74 µM
[19]
  GI50: 1.97 µM
  TGI: 4.72 µM
[20]
  GI50: 2.22 µM
  TGI: 5.09 µM
[21]
  GI50: 1.92 µM
  TGI: 3.82 µM
[22]
  GI50: 1.85 µM
  TGI: 3.52 µM
[23]
  GI50: 1.91 µM
  TGI: 3.5 µM
[24]
  GI50: 1.85 µM
  TGI: 4.65 µM
[25]
  GI50: 14.1 µM
  TGI: 44.6 µM
[26]
  GI50: 1.77 µM
  TGI: 3.62 µM
[27]
  GI50: 1.78 µM
  TGI: 3.39 µM
[28]
  GI50: 1.91 µM
  TGI: 3.87 µM
[29]
  GI50: 1.83 µM
  TGI: 4.37 µM
[30]
  GI50: 1.75 µM
  TGI: 3.22 µM
[31]
  GI50: 1.88 µM
  TGI: 4.1 µM
[32]
  GI50: 2.84 µM
  TGI: 8.51 µM
[33]
  GI50: 2.24 µM
  TGI: 6.75 µM
[34]
  GI50: 1.91 µM
  TGI: 3.93 µM
[35]
  GI50: 2.56 µM
  TGI: 9.25 µM
[36]
  GI50: 2.25 µM
  TGI: 5.54 µM
[37]
  GI50: 3.33 µM
  TGI: 12.3 µM
[38]
  GI50: 1.65 µM
  TGI: 3.34 µM
[39]
  GI50: 6.31 µM
  TGI: > 100 µM
[40]
  GI50: 3.44 µM
  TGI: > 100 µM
[41]
  GI50: 1.58 µM
  TGI: 3.16 µM
[42]
  GI50: 1.56 µM
  TGI: 3.04 µM
[43]
  GI50: 1.87 µM
  TGI: 3.31 µM
[44]
  GI50: 1.95 µM
  TGI: 4.31 µM
[45]
  GI50: 2.13 µM
  TGI: 5.87 µM
